Assays:
[1] = system: Pan02-Luc hepatic metastasis; assay: Pan02-Luc liver metastasis model with bioluminescent imaging; assay type: in vivo, C57BL/6 mice
Description: Male C57/BL6 mice (6–8 weeks) were obtained from the National Rodent Laboratory Animal Resources (NRLAR, Shanghai, China). All mice were housed according to Institutional Animal Care and Use Committee guidelines and under a protocol approved by East China Normal University Ethics Committee with respect to animal care and welfare assurance. The bioluminescent liver metastasis mouse model was established as described previously. In brief, 2 × 10^6 Pan02/luc cells suspended in 50 μL of PBS were injected into mice spleen. […] Tumor metastasis was monitored by using an in vivo imaging system following intraperitoneal injection with D-Luciferin (2 mg per mouse; Promega). Bioluminescence intensity was recorded every seven days by a Xenogen IVIS-200 Optical in vivo imaging system (PerkinElmer; Waltham, MA, USA) for up to 4 weeks. The mouse body weight was measured every other day. Survival curve analysis was performed using GraphPad Prism 7.
Mouse liver tissues were harvested, fixed, paraffin embedded, and sectioned (8 μm). The tissues were permeabilized with 0.25% TritonX-100 at room temperature for 15 min, blocked with 1% FBS in PBS, and followed by incubation in primary antibodies at 4 °C overnight: rabbit anti-YAP (1:50 dilution, ab205270, abcam). The sections were then washed with PBS, incubated with anti-rabbit secondary antibody for 2 h and dyed with DAPI (10 μg/mL in PBS) for 5 min at room temperature. Slides were mounted using DPX Mountant (Electron Microscopy Sciences) and images were obtained by inverted fluorescence microscope (Olympus, Tokyo, Japan).

Pan02 cells [2] = assay: 3D Matrigel tumor spheroid invasion assay, Pan02; assay type: cell-based, murine; settings: 0.1 μM PGE2, day 7
Description: (§1) The 3D Matrigel invasion assay was performed as described. Pan02 and BxPC-3 cells were plated above a layer of Matrigel (ThermoFisher, Shanghai, China) and covered with growth medium containing 10% Matrigel. The culture medium containing different concentrations of compounds was changed every two days. After 7 days, cells with stellate invasive structure were photographed (OLYMPUS, Tokyo, Japan).

EP4 [3] = target: T1, EP4 (Homo sapiens, UniProt P35408); assay: cAMP responsive element (CRE) luciferase reporter assay; assay type: cell-based; set-up: host or cells: HEK293 (results) / CHO-K1 (methods)
T1 sequence (P35408 whole entry): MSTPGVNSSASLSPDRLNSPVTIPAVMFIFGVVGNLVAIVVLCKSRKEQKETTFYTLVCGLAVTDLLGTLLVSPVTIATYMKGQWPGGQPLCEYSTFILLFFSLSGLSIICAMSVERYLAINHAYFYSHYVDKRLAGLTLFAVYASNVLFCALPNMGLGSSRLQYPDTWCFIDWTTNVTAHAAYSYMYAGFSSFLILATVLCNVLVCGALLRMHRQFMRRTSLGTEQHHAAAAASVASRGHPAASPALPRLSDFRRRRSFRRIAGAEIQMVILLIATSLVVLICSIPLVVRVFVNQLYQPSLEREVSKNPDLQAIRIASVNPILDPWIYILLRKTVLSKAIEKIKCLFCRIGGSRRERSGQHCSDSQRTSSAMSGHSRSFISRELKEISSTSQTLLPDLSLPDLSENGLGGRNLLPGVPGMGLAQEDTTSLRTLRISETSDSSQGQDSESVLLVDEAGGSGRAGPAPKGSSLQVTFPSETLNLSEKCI
Description: (§2) CHO-K1 cells or pancreatic cancer cell lines were transfected with a cAMP responsive element (CRE) reporter or TEAD reporter using lipofectamine 2000 according to the manufacturer’s manual. Transfected cells were treated with varied concentrations of compounds for 24 h. Then, cells were lysed and luciferase activities were determined using Dual-Luciferase Reporter Assay Kit (Promega, Madison, WI, USA).

BxPC-3 cells [4] = assay: 3D Matrigel tumor spheroid invasion assay, BxPC-3; assay type: cell-based, human; settings: 0.1 μM PGE2, day 7
Description: as §1

[5] = system: YAP/TEAD reporter in BxPC-3 cells; assay: TEAD-driven luciferase reporter assay, BxPC-3; assay type: cell-based, human; settings: 16 h
Description: as §2, with “Transfected cells were treated with varied concentrations of compounds for 24 h.” left out

ERK1/2 phosphorylation = assay: Western blotting of PGE2-induced ERK1/2 phosphorylation; assay type: cell-based; settings: pre-incubation 20 min, then 30 nM PGE2 for 5 min; dose-dependent
Pan02 cells [6] = assay: Wound healing assay, Pan02; assay type: cell-based, murine; settings: 0.1 μM PGE2, 24 h, dose-dependent
Description: (§3) The wound healing assay was performed according to a standard protocol as described before. Briefly, Pan02 and BxPC-3 cells were grown as a confluent monolayer in 12-well plates (Corning, Corning, NY, USA) overnight and starved with serum-free medium for 6 h. The monolayer cells were disrupted with a P100 micropipette tip (JET BIOFIL, Guangzhou, China) and rinsed with PBS to remove detached cells. Medium containing different concentrations of compounds was added subsequently. After 24 h, treated cells were stained with 2 μM calcein-AM (Yeasen, Shanghai, China) for 20 min and washed with PBS. Photos were taken of the area in the scraped zone of each dish at 100× magnification by using an inverted fluorescent microscope (OLYMPUS, Tokyo, Japan).

BxPC-3 cells [7] = assay: Transwell migration assay, BxPC-3; assay type: cell-based, human; settings: BxPC-3; with PGE2; 24 h
Description: The transwell assay was conducted as described previously, using 8 μm pore transwell inserts (Corning, NY, USA). Cells were suspended in serum-free DMEM and seeded into upper chambers at appropriate density. The bottom chamber was filled with DMEM supplemented with 10% fetal bovine serum and indicated concentrations of PGE2. The compounds were added in both upper and bottom chambers. […] Migrated cells were counted and quantified using image J.

Pan02 cells [8] = assay: Cell viability assay (MTS), Pan02; assay type: cell-based, murine; settings: 72 h
Description: Cells were seeded into 96-well plates and treated with varied concentrations of compounds for 72 hrs. Cell viabilities were determined by using MTS reagent (Promega, Madison, WI, USA) according to the manufacturer’s manual. Spectrophotometric absorbance at 490 nm was measured by Flexstation® 3 Multi-Mode Microplate Reader (Molecular Devices, San Jose, CA, USA). The experiments were independently repeated three times.

human EP2 = target: T2, human EP2 (Homo sapiens, UniProt P43116); assay: Calcium flux assay, human EP2; assay type: cell-based; settings: CHO-Gα16 cells, PGE2 (EC80)
T2 construct: expressed in transfected cells; host or cells: CHO-Gα16
T2 sequence (P43116 whole entry): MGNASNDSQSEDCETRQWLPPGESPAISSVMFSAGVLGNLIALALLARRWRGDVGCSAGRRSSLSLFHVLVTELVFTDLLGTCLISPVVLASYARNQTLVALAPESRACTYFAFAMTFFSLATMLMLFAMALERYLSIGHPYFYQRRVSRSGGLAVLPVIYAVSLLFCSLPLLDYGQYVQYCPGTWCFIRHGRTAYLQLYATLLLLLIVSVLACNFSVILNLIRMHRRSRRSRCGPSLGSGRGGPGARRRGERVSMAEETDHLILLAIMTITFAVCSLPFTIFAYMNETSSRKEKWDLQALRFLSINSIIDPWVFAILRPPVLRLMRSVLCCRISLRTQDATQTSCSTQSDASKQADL
Description: (§4) Calcium flux assay was conducted as described in our previous study. Briefly, CHO-Gα16 cells were transfected, respectively, with human EP1, human EP2, human EP3, human EP4, monkey EP4, mouse EP4 and rat EP4 overexpression constructs using lipofectamine 2000 according to the manufacturer’s manual. Cells were then seeded into a 96-well black plate with a cell density of 2 × 10^4 cells/100 μL per well for a 16-h culture. On the next day, cells were incubated for 45 min with reagents (100 μL/well) of Calcium-5 Assay Kit (Molecular Devices, San Jose, CA, USA). Then, cells were pre-treated with indicated concentrations of L001 for 15 min and stimulated with PGE2 (EC80). The calcium flux was detected subsequently by a Flexstation® 3 Multi-Mode Microplate Reader (Molecular Devices, San Jose, CA, USA).

BxPC-3 cells [9] = assay: Wound healing assay, BxPC-3; assay type: cell-based, human; settings: 0.1 μM PGE2, 24 h, dose-dependent
Description: as §3

EP4 [10] = target: T1, EP4; assay: Calcium flux assay, human EP4; assay type: cell-based; set-up: expressed in transfected cells; host or cells: CHO-Gα16
Description: as §4

Question: Which results are given for `C[C@H](NC(=O)c1c(Cc2cccc(C(F)(F)F)c2)sc2c1CCOC2)c1ccc(C(=O)O)cc1` [L001]?
Answer: YAP protein level in hepatic metastasis loci ([1]; IHC, L001 75 mg/kg p.o. daily): decreased protein levels of YAP; H&E imaging of liver sections ([1]; L001 or E7046 75 mg/kg p.o. daily, gemcitabine 25 mg/kg i.p. twice a week): remarkably reduced metastatic clusters; reduction of Pan02 cell liver metastases (bioluminescence of separated livers) ([1]; L001 or E7046 75 mg/kg p.o. daily, gemcitabine 25 mg/kg i.p. twice a week, n = 6): 85.14%; reduction in median luminescence signal compared with vehicle control group ([1]; day 28, L001 or E7046 75 mg/kg p.o. daily, gemcitabine 25 mg/kg i.p. twice a week, n = 6): 80.57%; median survival ([1]; n = 9, L001 or E7046 75 mg/kg p.o. daily, gemcitabine 25 mg/kg i.p. twice a week, control 34 days): 42 days; mRNA expressions of Vimentin and Snail in hepatic metastasis loci ([1]; qPCR, L001 75 mg/kg p.o. daily): reduced the mRNA expressions; spheroid invasion morphology (filopodium-like protrusions) (Pan02 cells [2]): completely retracted PGE2-induced membrane surface projections; IC50 (EP4 [3]): 7.29 ± 0.64 nM; antagonism efficacy on EP4 compared with E7046 (EP4 [3]; CRE reporter assay): over 5 fold; spheroid invasion morphology (filopodium-like protrusions) (BxPC-3 cells [4]): completely retracted PGE2-induced membrane surface projections; PGE2-driven YAP/TEAD reporter activity [5]: remarkably suppressed; PGE2-induced phosphorylation of ERK1/2 (ERK1/2 phosphorylation): significantly blocked; PGE2-triggered wound closure (Pan02 cells [6]): significantly blocked; migrated cells in the lower layer of the transwell (BxPC-3 cells [7]): reduced migrated cells; cell viability (Pan02 cells [8]): did not affect the cell viabilities; IC50 (human EP2): > 10000 nM; PGE2-triggered wound closure (BxPC-3 cells [9]): significantly blocked; IC50 (EP4 [10]): 1.47 ± 0.02 nM; antagonism efficacy on EP4 compared with E7046 (EP4 [10]; calcium flux assay): over 5 fold

Reference: article PMC8879074, “A Novel Small Molecular Prostaglandin Receptor EP4 Antagonist, L001, Suppresses Pancreatic Cancer Metastasis” (Molecules, 2022)
